This note sets out measurements from patent US20250332116A1, “CARBON-BASED ANTI VIRAL NANOPARTICLES” (PORTO CONTE RICERCHE SOCIETA A RESP[…], priority 2021, published 2025).

As usually defined, the CC50 is the concentration at which the toxic effect on the cells reaches its halfway point. Broadly, the viability is a per cent measure of how many cells are alive, often set against a control.

In brackets after ≈: the same amount, converted by molar mass. Bounds are passed on as bounds.

A short description of one data set: MTS cytotoxicity assay. The conditions noted are these: African green monkey (Cercopithecus aethiops), Vero E6 cells. (Tetrazolium assays rely on reduction of a dye to a coloured formazan, in cell work by metabolically active cells.)
The subject of the next data set is SARS-CoV-2. As to the kind of experiment: Antiviral activity assay (SARS-CoV-2 nucleoprotein ELISA, CPE observation) in Vero E6 cells. The class given is cell-based. The settings on record: Severe acute respiratory syndrome coronavirus 2, Vero C1008.

Take `CCC(CC)COC(=O)[C@H](C)N[P@](=O)(OC[C@H]1O[C@@](C#N)(c2ccc3c(N)ncnn23)[C@H](O)[C@@H]1O)Oc1ccccc1` [Remdesivir]: in “MTS cytotoxicity assay”, the CC50 at 72 h was greater than 120 µg/mL; the viability at 72 h, 2.4 μg mL^−1 amounted to 94.1 ± 1%; the viability at 72 h, 12 μg mL^−1 was 98.9 ± 6.7%; the viability at 72 h, 60 μg mL^−1 came to 82.1 ± 2.2%. Further, the activity at 0.05 µg/mL in the data set on SARS-CoV-2 (0.05 μg mL^−1, m.o.i. 0.01, 72 hours, ELISA, untreated infected control =100%, read-out: Antiviral activity (% viral NC protein, compared to untreated control)) was 107 ± 23%. For the same compound, the activity at 0.24 µg/mL in the data set with SARS-CoV-2 (0.24 μg mL^−1, m.o.i. 0.01, 72 hours, ELISA, untreated infected control =100%, read-out: Antiviral activity (% viral NC protein, compared to untreated control)) came out at 96 ± 10%. For the same compound, the activity at 1.2 µg/mL in the data set with SARS-CoV-2 (1.2 μg mL^−1, m.o.i. 0.01, 72 hours, ELISA, untreated infected control =100%, read-out: Antiviral activity (% viral NC protein, compared to untreated control)) came to 73 ± 9%. Further, in the data set with SARS-CoV-2 (6 μg mL^−1, m.o.i. 0.01, 72 hours, ELISA, untreated infected control =100%, read-out: Antiviral activity (% viral NC protein, compared to untreated control)), the activity at 6 µg/mL worked out at 14 ± 7%. Moreover, in the data set with SARS-CoV-2 (Vero E6, m.o.i. 0.01, 72 hours, nucleoprotein ELISA, read-out: 50% inhibitory concentration (IC50), SARS-CoV-2 viral replication), the IC50 amounted to 1.9 µg/mL (≈ 3.15 µM).
